Results reported in paper PMC5418449, “Characterisation of CCT271850, a selective, oral and potent MPS1 inhibitor, used to directly measure in vivo MPS1 inhibition vs therapeutic efficacy” (British Journal of Cancer, 2017).

Legend:
Set-up in all cases: 14-day clonogenic growth inhibition assay, human cancer cell line panel
Conditions in all cases: 14-day clonogenic assay; inhibitor; read-out: Table S1. IC50 of CCT271850 determined by MTT and clonogenic assays (CA). / All cell lines were tested at least 2 times. / 14-day CA
PJ34 = tested on: PJ34
Description: (§1) To evaluate CCT271850 antiproliferation effects in a large panel of human cancer cell lines, 91 cell lines were treated for 72 h and 14 days at different compound concentrations in growth inhibition assays. The growth inhibition values as measured by IC50 are summarised in Table 2 and Supplementary Table S1. […] Cell lines from colon and head and neck cancers were among the most sensitive.

EF027 = tested on: EF027
Description: as §1

RMG1 = tested on: RMG1
Description: as §1

011B = tested on: 011B
Description: as §1

Det562 = tested on: Det562
Description: as §1

Suit-2 = tested on: Suit-2
Description: as §1

PT45 = tested on: PT45
Description: as §1

A2780 = tested on: A2780
Description: as §1

Kuramochi = tested on: Kuramochi
Description: as §1

Lon-HN5 = tested on: Lon-HN5
Description: as §1

OVCAR3 = tested on: OVCAR3
Description: as §1

OAW42 = tested on: OAW42
Description: as §1

TOV21G = tested on: TOV21G
Description: as §1

OAW28 = tested on: OAW28
Description: as §1

015B = tested on: 015B
Description: as §1

KGN = tested on: KGN
Description: as §1

CaoV3 = tested on: CaoV3
Description: as §1

011A = tested on: 011A
Description: as §1

SW626 = tested on: SW626
Description: as §1

PATU-8988T = tested on: PATU-8988T
Description: as §1

PANC-1 = tested on: PANC-1
Description: as §1

SMOV2 = tested on: SMOV2
Description: as §1

PATU-8902 = tested on: PATU-8902
Description: as §1

005B = tested on: 005B
Description: as §1

Miapaca-2 = tested on: Miapaca-2
Description: as §1

PATU-8988S = tested on: PATU-8988S
Description: as §1

OVCAR5 = tested on: OVCAR5
Description: as §1

O13 = tested on: O13
Description: as §1

OVCAR4 = tested on: OVCAR4
Description: as §1

HN3 = tested on: HN3
Description: as §1

EF021 = tested on: EF021
Description: as §1

CAL27 = tested on: CAL27
Description: as §1

OVCAR8 = tested on: OVCAR8
Description: as §1

IGROV1 = tested on: IGROV1
Description: as §1

CFPAC-1 = tested on: CFPAC-1
Description: as §1

- IC50 (A2780): 105 nM
- IC50 (OVCAR3): 99 nM
- IC50 (SW626): 32 nM
- IC50 (PANC-1): 74 nM
- IC50 (Miapaca-2): 68 nM
- IC50 (OVCAR5): 82 nM
- IC50 (OVCAR4): 62 nM
- IC50 (OVCAR8): 101 nM
SMILES: COc1cc(-c2cnn(C)c2)ccc1Nc1ncc2ccnc(N[C@@H](C)C(C)(C)C)c2n1 [34h, CCT271850]
- IC50 (PJ34): 35 nM
- IC50 (EF027): 37 nM
- IC50 (RMG1): 42 nM
- IC50 (011B): 21 nM
- IC50 (Det562): 46 nM
- IC50 (Suit-2): 87 nM
- IC50 (PT45): 59 nM
- IC50 (Kuramochi): 34 nM
- IC50 (Lon-HN5): 44 nM
- IC50 (OAW42): 57 nM
- IC50 (TOV21G): 7.8 nM
- IC50 (OAW28): 61 nM
- IC50 (015B): 59 nM
- IC50 (KGN): 106 nM
- IC50 (CaoV3): 75 nM
- IC50 (011A): 20 nM
- IC50 (PATU-8988T): 87 nM
- IC50 (SMOV2): 14 nM
- IC50 (PATU-8902): 28 nM
- IC50 (005B): 45 nM
- IC50 (PATU-8988S): 110 nM
- IC50 (O13): 21 nM
- IC50 (HN3): 5.2 nM
- IC50 (EF021): 72 nM
- IC50 (CAL27): 4 nM
- IC50 (IGROV1): 48 nM
- IC50 (CFPAC-1): 63 nM
